The values below come from publication PMC9227536, “Prediction of Pharmacokinetics of IDP-73152 in Humans Using Physiologically-Based Pharmacokinetics” (Pharmaceutics, 2022).

The nature of data set [1]: PK study in mice (intravenous and oral). It is filed as in vivo, male ICR mice. Here is the method: The in vivo experimental protocol was approved by the Institutional Animal Care and Use Committee of Research Laboratory at Ildong pharmaceutical Co., Ltd. (Ref. No.: IDL-PDF-001 and 09005-11004). Animals were acclimatized to the laboratory conditions for at least 1 week before the experiments and were kept in the standardized conditions (20–25 °C, 55 ± 5% humidity, and a 12 h light/dark cycle). The animals fasted overnight prior to drug administration, and food was resupplied 4 h post-dose. In this study, a single dose of IDP-73152 at 10 mg/kg (i.e., the injection volume of 5 mL/kg, IDP-73152 dissolved in saline) was intravenously administered to male ICR mice (body weight 18.2–21.4 g, Orient Bio Inc., Seongnam, Korea) via the tail vein. […] Blood samples (100 μL) were collected from the retroorbital plexus at 0.167, 0.333, 0.5, 1, 2, 4, or 8 h after the administration. Plasma was separated/collected from the blood samples by centrifugation for 5 min at 10,000× g/4 °C and stored at −80 °C until analysis. When necessary for a model independent PK analysis, a standard moment analysis was carried out with WinNonlin software using either representative (for the study with mice) or individual (for the study with rats, dogs, and humans) concentration–time profile(s). For the calculation of PBPK models, Berkeley Madonna 8.3.18 (Albany, CA, USA) was used with the fourth-order Runge–Kutta method for numerical integration.

The nature of data set [2]: PBPK model prediction, mice. The source says: In this study, the PBPK model involving ten tissues (i.e., adipose tissue, brain, heart, kidney, liver, lung, muscle, skin, spleen, and testis (Figure 2; see Appendix A for detailed mathematical descriptions)) was considered to be applicable for the description of IDP-73152 PK in rats, mice, dogs, and humans. Physiological variables were obtained from the literature; they are summarized in Supplementary Table S1.
For the estimation of the volume of the distribution of IDP-73512 in rats, the steady-state volume of distribution (Vss) was calculated using the following equation [30]:(10) Vss=VP+Vrbc×EP+∑VT,i×KP,ss,i, where Vp, Vrbc, and VT,i are the volumes of plasma, red blood cells, and tissues, respectively. The erythrocyte-to-plasma partition coefficient (EP), is calculated by EP=1+(BP−1)/Hematocrit . The KP,ss for each tissue obtained from Equation (8) was applied for Equation (10). For the case of non-eliminating organs, the KP,ss was regarded as the tissue-to-plasma partition coefficient (KP) in PBPK equations (Appendix A). For the case of the liver—i.e., the eliminating organ—the KP,ss (KP,ss,LI) had to be corrected to account for the equilibrium being altered by the elimination. Thus, a PBPK-operative KP for liver (KP,LI) was calculated using the following equation [31]:(11) KP,LI=KP,ss,LI/(1−ER), where ER is the hepatic extraction ratio of the compound (i.e., CLh/(QLI·BP)). In this study, a compartmental absorption and transit (CAT) model consisting of stomach and five intestinal segments was considered for the description of the intestinal absorption kinetics of IDP-73152 in animals and humans. We assumed that the initial compartment denoted the stomach (Equation (12)), and the subsequent three compartments represented the small intestine and two additional compartments for the large intestine (i.e., a total of six compartments, with absorption occurring in the five intestinal compartments) (Equation (13)). The differential equations describing the rate of drug absorption and transit in the gastrointestinal tract can be written as:
For the intestine, viz. i = 1~5:(13) dMi/dt=Kt,i−1×Mi−1−(Kt,i+ka,i)×Mi, where Ms is the amount of drug in the stomach; Mi is the amount of drug in the i-th intestinal segment; Ks, Kt,i, and ka,i are the rate constants of gastric emptying, intestinal transit, and the segmental absorption rate, respectively. In Equation (13) at i = 1, Kt,0 and M0 represent Ks and Ms, respectively. […] The absorption rate constant in the intestinal segments in humans, ka,i,human, was assumed to be identical along the segments and calculated as follows: first, Peff was empirically estimated from the Caco-2 cell permeability (Papp):(14) LogPeff=0.4926×LogPapp−0.1454 […]

Data set [3] in a line: Unbound fraction in plasma (rapid equilibrium dialysis), rat. It is filed as in vitro ADME. Conditions: rats plasma, 0.3, 1, 3 μM, RED 5 h, read-out: fu,p. As for the experimental part: The unbound fractions of IDP-73152 in various matrices were measured according to the manufacturer’s instructions for the rapid equilibrium dialysis (RED) device (ThermoFisher Scientific, Waltham, MA, USA). Briefly, IDP-73152 was added to the plasma or the microsomal/hepatocyte incubation buffer from various species (i.e., mouse, rat, dog, and human for microsomal incubation; rat for hepatocyte incubation) to obtain final concentrations of the compound at 0.3, 1, and 3 μM. After the membrane insert was placed in the RED plate, the solution containing IDP-73152 was added (400 µL) to the sample chamber, and the dialysis buffer (600 μL) was added to the buffer chamber. The RED plate was sealed with parafilm and then incubated at 37 °C in the orbital shaker (Lab Companion, Daejeon, Korea) at 100 rpm for 5 h. After a 50 μL aliquot was aspirated from both the sample and buffer chambers, an equal volume of protein-free buffer or blank medium was replaced in the aspirated sample or buffer to render the matrices compositionally identical. The IDP-73152 concentration in the buffer/sample chambers (i.e., CBuffer Chamber and CSample Chamber) was determined by an assay. Thus, the fraction unbound was defined as:(2) % Fraction unbound=(CBuffer Chamber/CSample Chamber)×100%

Where [4] appears, read: male, ICR, mouse, plasma, oral 20 mg/kg.

Structures are written as SMILES. Where two headings read alike, the source gives them in different places.

Usually AUC(0-inf) stands for the area under the concentration-time curve extrapolated to infinity. Read a high AUC(0-inf) as more exposure. As a reminder, the Cmax is the peak of the concentration-time curve. In general, Tmax refers to the time from dosing to the highest level. Broadly, the bioavailability is dose-corrected exposure relative to a reference, in per cent.

`CC(C)(C)[C@H](NC(=O)[C@H](CC1CCCC1)CN(O)C=O)C(=O)N1CCC(NCc2cc(F)c(F)cc2F)CC1` [IDP-73152]: in data set [1] (male, ICR, mouse, plasma, intravenous 10 mg/kg, moment analysis, read-out: Vss), the Vd turned out to be 1.43 L/kg. In addition, the half-life was 43.9 min in data set [1] (male, ICR, mouse, plasma, intravenous 10 mg/kg, read-out: t1/2 (converted)) and 172 min in data set [1] (male, ICR, mouse, plasma, oral 20 mg/kg, read-out: t1/2 (terminal phase half-life) (converted)). Besides, in data set [1] (male, ICR, mouse, plasma, intravenous 10 mg/kg, representative concentration–time profile, read-out: CLp (converted)), the clearance is 25.3 mL/min/kg. Besides, the AUC(0-inf) in data set [1] (male, ICR, mouse, plasma, iv, 10 mg/kg, intravenous 10 mg/kg) came out at 6590 ng·h/mL; in data set [1] (male, ICR, mouse, plasma, po, 20 mg/kg, oral 20 mg/kg), 10900 ng·h/mL. This compound also showed a Cmax in data set [1] (setting [4]) of 3100 ng/mL. The Tmax in data set [1] (setting [4]) is 20 min. Also, the bioavailability in data set [1] (male, ICR, mouse, plasma, oral 20 mg/kg vs intravenous 10 mg/kg, read-out: F (bioavailability)) was determined as 78.1%. Moreover, the AUCinf in data set [1] (oral 20 mg/kg, 20 mg/kg) is 10300 ng·h/mL. Besides, the values for the AUC ratio in data set [2] (intravenous 10 mg/kg) and in data set [2] (oral 20 mg/kg) were 1.15 and 0.880, respectively. The “Cmax ratio without the scaling (SF)” value in data set [2] (oral) is recorded as 1.72. Besides, the Cmax ratio in data set [2] (oral 20 mg/kg) is listed as 0.906. Further, the fraction unbound at 5 h in data set [3] was found to be 0.0582 ± 0.005.
